# ± gives the expanded uncertainty stated by the source.
# Test: wn = mass fraction of the nth substance listed
# Conditions: 100 kPa, Liquid, Pycnometric method
Compound,"mass density (288.15 K, w1 = 0.1686)","mass density (318.15 K, w1 = 0.2685)","mass density (288.15 K, w1 = 0.436)","mass density (318.15 K, w1 = 0.5992)"
O=P([O-])(O)O.[K+] [monopotassium phosphate] + O,1126.4 ± 2.6 kg/m3,1204.6 ± 2.8 kg/m3,,
O=P([O-])(O)O.[Na+] [sodium dihydrogen phosphate] + O,,,1388.4 ± 3.4 kg/m3,1573.3 ± 3.8 kg/m3

# From the NIST ThermoML archive (doi:10.1021/acs.jced.7b00020)
